Results on 25 molecules are retold here after patent publication US6197768A, “Pyridocarbazole derivatives having cgmp-pde inhibitory activity” (Mochida Pharmaceutical Co., Ltd., priority 1996, dated 2001).

The term IC50 denotes the concentration that inhibits the measured activity by half.

Experiment [1] has as its system PDE type I. The experiment is described as follows: PDE Inhibiting Activity, type I. Type of experiment: biochemical, dog (canine aorta). The conditions noted are these: PDE type I from canine aorta, 1 μM substrate, pH 7.5; read-out: Inhibition Activity IC50, Type I. As to the method: (§1) On the basis of the method of Lugnier et al. (Biochem. Pharmacol., 35, 1743-1751, 1986), PDE was purified from the aorta in a dog. The canine aorta was minced and homogenized with a Waring Blender and a glass homogenizer in six volumes of a Tris-HCl buffer solution (pH 7.5, 20 mM) containing 2 mM magnesium acetate, 5 mM ethylenediaminetetraacetic acid (EDTA), 100 μg/mL of phenylmethylsulforyl fluoride and 15 mM 2-mercaptoethanol (2-ME), and centrifuged at 1200 xg for 30 min. The supernatant was separated and salted out with ammonium sulfate which was added to 45% saturation. The resulting precipitated fraction was resuspended in a Tris-HCl buffer solution (pH 7.5, 20 mM) containing 2 mM magnesium acetate and 1 mM 2-ME, dialyzed overnight and applied to a DEAE-trisacryl column (DEAE […] M:IBF). By elution with a sodium chloride gradient (0-0.4 M), PDE types V and III were separated from the other isozymes. The supernatant fraction of 45% saturated ammonium sulfate was further mixed with ammonium sulfate to 65% saturation and salted out. The resulting precipitated fraction was similarly applied to the DEAE-trisacryl column and eluted by a sodium chloride gradient (0-0.4 M) so as to separate PDE type I.
(§2) The thus obtained PDE types V, III and I were measured for their activity in accordance with the method of Thompson et al. (Adv. Cyclic Nucleotide Res., 10, 69-72, 1979) and the method of Wells et al. (Biochim. Biophys. Acta, 384, 430-443, 1975). Specifically, a purified PDE sample was added to 50 mM Tris-HCl buffer solution (pH 7.5) containing 1 μM of substrate cGMP or cAMP (containing tritium-labelled cGMP or cAMP), 1 mM EGTA and 2 mM magnesium acetate. For PDE activity measurement, enzymatically produced 5' GMP or 5' AMP was further hydrolyzed into guanosine or adenosine with snake venom and separated from the substrate by means of an ion-exchange resin (Dowex 1-X2), followed by measuring with a scintillation counter. The activity of each test compound was determined as a percentage of the DPE activity measured when it was added as a dimethyl sulfoxide solution (DMSO) and its IC50 (50% inhibition concentration) was calculated by the probit method. The final concentration of DMSO was adjusted to be no more than 2% in consideration of the effect on PDE activity.

Experiment [2] deals with T1, PDE type III (Canis lupus familiaris, UniProt A0A8I3NYE0).
T1 construct: PDE was purified from the aorta in a dog; from tissue; host or cells: dog aorta
T1 sequence (A0A8I3NYE0 1-1135): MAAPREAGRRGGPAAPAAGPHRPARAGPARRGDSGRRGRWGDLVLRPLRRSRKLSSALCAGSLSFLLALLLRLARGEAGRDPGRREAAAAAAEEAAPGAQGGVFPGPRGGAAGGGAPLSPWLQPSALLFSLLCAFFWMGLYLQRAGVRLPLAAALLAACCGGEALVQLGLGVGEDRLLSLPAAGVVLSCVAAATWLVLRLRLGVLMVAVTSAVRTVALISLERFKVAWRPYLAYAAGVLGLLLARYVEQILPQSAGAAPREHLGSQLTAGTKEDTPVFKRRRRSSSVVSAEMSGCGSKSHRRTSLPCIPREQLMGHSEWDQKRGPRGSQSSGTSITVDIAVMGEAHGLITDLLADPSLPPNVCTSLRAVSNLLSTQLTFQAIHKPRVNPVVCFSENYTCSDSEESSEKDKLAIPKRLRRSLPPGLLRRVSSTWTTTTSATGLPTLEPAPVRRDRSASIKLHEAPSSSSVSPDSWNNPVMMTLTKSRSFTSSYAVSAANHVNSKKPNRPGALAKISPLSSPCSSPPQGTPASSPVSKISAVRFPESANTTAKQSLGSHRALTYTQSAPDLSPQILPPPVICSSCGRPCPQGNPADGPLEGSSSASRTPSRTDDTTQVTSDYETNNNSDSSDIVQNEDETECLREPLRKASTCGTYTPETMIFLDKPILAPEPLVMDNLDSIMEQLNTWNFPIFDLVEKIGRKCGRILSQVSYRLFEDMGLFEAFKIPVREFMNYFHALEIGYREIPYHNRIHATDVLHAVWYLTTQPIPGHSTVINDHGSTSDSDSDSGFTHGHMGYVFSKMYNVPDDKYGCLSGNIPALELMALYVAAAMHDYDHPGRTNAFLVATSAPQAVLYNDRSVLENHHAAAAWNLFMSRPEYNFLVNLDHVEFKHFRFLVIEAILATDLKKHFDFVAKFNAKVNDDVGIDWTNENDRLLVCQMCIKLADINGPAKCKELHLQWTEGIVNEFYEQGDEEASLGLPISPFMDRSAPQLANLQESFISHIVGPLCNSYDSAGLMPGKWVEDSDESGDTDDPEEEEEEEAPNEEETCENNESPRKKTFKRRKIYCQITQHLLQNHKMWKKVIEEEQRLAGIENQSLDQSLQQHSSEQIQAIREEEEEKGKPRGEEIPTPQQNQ
In words: PDE Inhibiting Activity, type III. Type of experiment: biochemical, dog (canine aorta). The conditions noted are these: PDE type III from canine aorta, 1 μM substrate, pH 7.5; read-out: Inhibition Activity IC50, Type III. As to the method: as §1, §2

Molecules are shown by their SMILES.

On to `O=c1c(Cc2cccnc2)cn2c3ccc(Br)cc3c3cc(O)cc1c32` [Example 2, 10-bromo-2-hydroxy-5-(3-pyridylmethyl)-4H-pyrido [3,2,1-jk]carbazole-4-one], for which the results for the IC50 in experiment [1] and in experiment [2] were above 30 µM and 3.6 µM, respectively. Consider `CC(C)OC(=O)COc1cc2c(=O)c(Cc3cccnc3)cn3c4ccc(Br)cc4c(c1)c23` [Example 4, 10-bromo-2-i-propoxycarbonylmethyloxy-5-(3-pyridylmethyl)-4H-pyrido [3,2,1-jk]carbazole-4-one], for which the IC50 is above 30 µM in experiment [1] and 6.8 µM in experiment [2]. The corresponding values for `CCOC(=O)COc1cc2c(=O)c(Cc3cccnc3)cn3c4ccc(Br)cc4c(c1)c23` [Example 5, 10-bromo-2-ethoxycarbonylmethyloxy-5-(3-pyridylmethyl)-4H-pyrido [3,2,1-jk]carbazole-4-one] are above 30 µM and 19 µM. Consider `O=c1c(Cc2cccnc2)cn2c3ccc(Br)cc3c3cc(OCc4cccnc4)cc1c32` [Example 18, 10-bromo-5-(3-pyridylmethyl)-2-(3-pyridylmethyloxy)-4H-pyrido [3,2,1-jk]carbazole-4-one], for which the IC50 in experiment [1] is above 30 µM; in experiment [2], 1.9 µM. For `O=c1c(Cc2cccnc2)cn2c3ccc(Br)cc3c3cc(OCc4ccccc4)cc1c32` [Example 22, 2-benzyloxy-10-bromo-5-(3-pyridylmethyl)-4H-pyrido [3,2,1-jk]carbazole-4-one], in that order: above 30 µM and 11 µM. Turning to `COc1cc2c(=O)c(C)cn3c4ccc(Br)cc4c(c1)c23` [Example 48, 10-bromo-2-methoxy-5-methyl-4H-pyrido [3,2,1-jk]carbazole-4-one], the IC50 in experiment [1] and in experiment [2] was above 100 µM in each case. For the molecule `Cc1cn2c3ccc(Br)cc3c3cc(O)cc(c1=O)c32` [Example 49, 10-bromo-2-hydroxy-5-methyl-4H-pyrido [3,2,1-jk]carbazole-4-one], the 50% inhibitory concentration (IC50) in experiment [1] is above 300 µM; in experiment [2], 198 µM. As to `Cc1cn2c3ccc(Br)cc3c3cc(OCC(=O)OC(C)C)cc(c1=O)c32` [Example 51], the IC50 in experiment [1] and in experiment [2] was above 30 µM in each case. For the molecule `CCOC(=O)COc1cc2c(=O)c(C)cn3c4ccc(Br)cc4c(c1)c23` [Example 52, 10-bromo-2-ethoxycarbonylmethyloxy-5-methyl-4H-pyrido [3,2,1-jk]carbazole-4-one], the IC50 in experiment [1] and in experiment [2] was above 30 µM in each case. For `CCCC(=O)COc1cc2c(=O)c(C)cn3c4ccc(Br)cc4c(c1)c23` [Example 57, 10-bromo-2-(2-oxopentyloxy)-5-methyl-4H-pyrido [3,2,1-jk]carbazole-4-one], the IC50 in experiment [1] and in experiment [2] was above 30 µM in each case. As for `COc1cc2c(=O)ccn3c4ccc(Br)cc4c(c1)c23` [Example 58, 10-bromo-2-methoxy-4H-pyrido [3,2,1-jk]carbazole-4-one], the IC50 in experiment [1] and in experiment [2] was above 10 µM throughout.

On to `O=c1ccn2c3ccc(Br)cc3c3cc(O)cc1c32` [Example 59, 10-bromo-2-hydroxy-4H-pyrido [3,2,1-jk]carbazole-4-one], for which the IC50 in experiment [1] and in experiment [2] was above 100 µM in each case. On to `CC(C)OC(=O)COc1cc2c(=O)ccn3c4ccc(Br)cc4c(c1)c23` [Example 61, 10-bromo-2-i-propoxycarbonylmethyloxy-4H-pyrido [3,2,1-jk]carbazole-4-one], for which the IC50 in experiment [1] and in experiment [2] was above 30 µM throughout. As for `CCOC(=O)COc1cc2c(=O)ccn3c4ccc(Br)cc4c(c1)c23` [Example 62, 10-bromo-2-ethoxycarbonylmethyloxy-4H-pyrido [3,2,1-jk]carbazole-4-one], the IC50 in experiment [1] and in experiment [2] was above 30 µM throughout.

Turning to `O=C(O)COc1cc2c(=O)ccn3c4ccc(Br)cc4c(c1)c23` [Example 63, 10-bromo-2-carboxymethyloxy-4H-pyrido [3,2,1-jk]carbazole-4-one], the concentration for half-maximal inhibition (IC50) in experiment [1] and in experiment [2] was above 30 µM in each case. As for `O=c1ccn2c3ccc(Br)cc3c3cc(OCc4cccnc4)cc1c32` [Example 64, 10-bromo-2-(3-pyridylmethyloxy)-4H-pyrido [3,2,1-jk]carbazole-4-one], the IC50 was above 100 µM in experiment [1] and 81 µM in experiment [2].

With `O=c1ccn2c3ccc(Br)cc3c3cc(OCc4ccccc4)cc1c32` [Example 66], the IC50 in experiment [1] and in experiment [2] was above 30 µM each time. As for `O=c1ccn2c3ccc(Br)cc3c3cc(OCc4ncon4)cc1c32` [Example 76], the IC50 in experiment [1] and in experiment [2] was above 30 µM throughout. As for `CC(=O)Oc1cc2c(=O)ccn3c4ccc(Br)cc4c(c1)c23` [Example 82], the IC50 in experiment [1] and in experiment [2] was above 100 µM throughout. As to `CCCC(=O)COc1cc2c(=O)ccn3c4ccc(Br)cc4c(c1)c23` [Example 83, 10-bromo-2-(2-oxopentyloxy)-4H-pyrido [3,2,1-jk]carbazole-4-one], the IC50 in experiment [1] and in experiment [2] was above 30 µM throughout. For the molecule `COc1cc2c(=O)c(Cc3cccnc3)cn3c4cc(Br)ccc4c(c1)c23` [Example 101, 9-bromo-2-methoxy-5-(3-pyridylmethyl)-4H-pyrido [3,2,1-jk]carbazole-4-one], the concentration for half-maximal inhibition (IC50) in experiment [1] and in experiment [2] was above 30 µM throughout. `CC(C)(C)OC(=O)COc1cc2c(=O)c(Cc3cccnc3)cn3c4cc(Br)ccc4c(c1)c23` [Example 103, 9-bromo-2-t-butoxycarbonyl-methyloxy-5-(3-pyridylmethyl)-4H-pyrido [3,2,1-jk]carbazole-4-one]: in experiment [2], the IC50 was above 30 µM. Take `O=C(O)COc1cc2c(=O)c(Cc3cccnc3)cn3c4cc(Br)ccc4c(c1)c23` [Example 104, 9-bromo-2-carboxymethyloxy-5-(3-pyridylmethyl)-4H-pyrido [3,2,1-jk]carbazole-4-one]: the IC50 in experiment [1] was above 30 µM; in experiment [2] it was 3.5 µM. Regarding `CC(=O)OCc1cncc(COc2cc3c(=O)c(Cc4cccnc4)cn4c5cc(Br)ccc5c(c2)c34)c1` [Example 106, 2-(5-acetoxymethyl-3-pyridylmethyloxy)-9-bromo-5-(3-pyridylmethyl)-4H-pyrido [3,2,1-jk]carbazole-4-one], the IC50 in experiment [1] and in experiment [2] was above 30 µM in each case. Regarding `O=c1c(Cc2cccnc2)cn2c3cc(Br)ccc3c3cc(OCc4cncc(CO)c4)cc1c32` [Example 107, 9-bromo-2-(5-hydroxymethyl-3-pyridylmethyloxy)-5-(3-pyridylmethyl)-4H-pyrido [3,2,1-jk]carbazole-4-one], the IC50 in experiment [1] and in experiment [2] was above 30 µM each time.
